Results on 4 molecules are retold here after ChEMBL document CHEMBL1134709 (Bioorg Med Chem Lett, 2001).

Structures are written as SMILES.

The target of this experiment is T1, Protein Tat (Human immunodeficiency virus type 1 group M subtype B (isolate PCV12)(HIV-1), UniProt P04326).
T1 sequence (P04326 whole entry): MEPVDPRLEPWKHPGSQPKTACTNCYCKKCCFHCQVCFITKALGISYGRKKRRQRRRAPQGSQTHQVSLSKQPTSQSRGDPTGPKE
Nature of the experiment: Inhibition of Tat peptide binding to HIV-1 TAR RNA. Details: species or system Human immunodeficiency virus type 1 (CLONE 12).
For `N=C(N)NCCCC(N)C(=O)NCC1O[C@@H](OC2C(N)C[C@@H](N)[C@@H](O)[C@H]2O)[C@@H](N)[C@@H](O)C1O` (some centres undefined), the IC50 came to 0.6 µM.
`NC[C@H]1OC(O[C@H]2[C@H](O)C(O)[C@H](N)C[C@@H]2N)C(N)[C@@H](O)[C@@H]1O` (single isomer, unassigned) [NEAMINE] registered an IC50 of 28 µM.
`NC1C[C@@H](N)[C@@H](O)[C@@H](O)C1O[C@@H]1OC(CNC(=O)c2ccc3ccc4cccc5ccc2c3c45)C(O)[C@H](O)[C@@H]1N` (some centres undefined) displayed an IC50 of 1.7 µM.
Take `N=C(N)NCCCC(NC(=O)c1ccc2ccc3cccc4ccc1c2c34)C(=O)NCC1OC(OC2C(N)CC(N)C(O)C2O)C(N)C(O)C1O` (centres undefined): the IC50 is 0.028 µM.

The IC50 is the concentration at which inhibition is half-maximal. Read a low IC50 as greater potency in that assay.
